Earlier results, collected in PMC6601333 (Biochemical and biophysical research communications, 2019).

Row | SMILES | inhibition of HIV-2 PR, fold worse than for HIV-1 PR (HIV-2 PR; relative to HIV-1 PR) | inhibition of HIV-1 PR (in words) (wild type HIV-1 PR) | inhibition of HIV-2 PR (in words) (HIV-2 PR)
1 | CC(C)CN(C[C@@H](O)[C@H](Cc1ccccc1)NC(=O)O[C@H]1CCOC1)S(=O)(=O)c1ccc(N)cc1 [APV, amprenavir] | 19 fold |  | 
2 | CC(C)CN(C[C@@H](O)[C@H](Cc1ccccc1)NC(=O)O[C@H]1CO[C@H]2OCC[C@H]21)S(=O)(=O)c1ccc(N)cc1 [DRV, darunavir] |  | effective inhibitors | effective inhibitors
3 | CC(C)(C)NC(=O)[C@@H]1C[C@@H]2CCCC[C@@H]2CN1C[C@@H](O)[C@H](Cc1ccccc1)NC(=O)[C@H](CC(N)=O)NC(=O)c1ccc2ccccc2n1 [SQV, saquinavir] |  | effective inhibitors | effective inhibitors
